Assay in all cases: flow cytometry uptake in Sf9 cells expressing the transporter
The target of one data set is T1, OATP1B3 (Homo sapiens, UniProt Q9NPD5).
T1 sequence (Q9NPD5 1-702): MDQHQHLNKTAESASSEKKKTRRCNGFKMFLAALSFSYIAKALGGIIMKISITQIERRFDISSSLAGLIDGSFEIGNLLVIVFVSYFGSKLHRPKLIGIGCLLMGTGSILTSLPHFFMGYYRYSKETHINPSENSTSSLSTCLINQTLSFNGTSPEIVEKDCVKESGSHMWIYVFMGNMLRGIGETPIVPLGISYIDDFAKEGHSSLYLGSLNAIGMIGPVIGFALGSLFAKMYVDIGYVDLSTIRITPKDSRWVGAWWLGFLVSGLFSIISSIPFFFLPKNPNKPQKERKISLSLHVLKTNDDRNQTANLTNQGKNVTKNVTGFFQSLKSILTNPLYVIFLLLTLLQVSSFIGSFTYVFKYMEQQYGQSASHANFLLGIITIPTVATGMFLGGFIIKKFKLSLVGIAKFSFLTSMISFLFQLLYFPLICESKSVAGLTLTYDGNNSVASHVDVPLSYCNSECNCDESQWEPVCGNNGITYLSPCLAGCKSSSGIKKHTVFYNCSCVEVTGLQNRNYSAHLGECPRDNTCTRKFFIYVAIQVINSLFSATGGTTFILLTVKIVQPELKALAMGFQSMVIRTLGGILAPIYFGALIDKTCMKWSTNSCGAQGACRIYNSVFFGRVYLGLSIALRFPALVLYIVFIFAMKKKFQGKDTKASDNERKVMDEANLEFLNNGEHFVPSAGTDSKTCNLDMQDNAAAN
Format: cell-based.

The target of another data set is T2, OATP1B1 (Homo sapiens, UniProt Q9Y6L6).
T2 sequence (Q9Y6L6 1-691): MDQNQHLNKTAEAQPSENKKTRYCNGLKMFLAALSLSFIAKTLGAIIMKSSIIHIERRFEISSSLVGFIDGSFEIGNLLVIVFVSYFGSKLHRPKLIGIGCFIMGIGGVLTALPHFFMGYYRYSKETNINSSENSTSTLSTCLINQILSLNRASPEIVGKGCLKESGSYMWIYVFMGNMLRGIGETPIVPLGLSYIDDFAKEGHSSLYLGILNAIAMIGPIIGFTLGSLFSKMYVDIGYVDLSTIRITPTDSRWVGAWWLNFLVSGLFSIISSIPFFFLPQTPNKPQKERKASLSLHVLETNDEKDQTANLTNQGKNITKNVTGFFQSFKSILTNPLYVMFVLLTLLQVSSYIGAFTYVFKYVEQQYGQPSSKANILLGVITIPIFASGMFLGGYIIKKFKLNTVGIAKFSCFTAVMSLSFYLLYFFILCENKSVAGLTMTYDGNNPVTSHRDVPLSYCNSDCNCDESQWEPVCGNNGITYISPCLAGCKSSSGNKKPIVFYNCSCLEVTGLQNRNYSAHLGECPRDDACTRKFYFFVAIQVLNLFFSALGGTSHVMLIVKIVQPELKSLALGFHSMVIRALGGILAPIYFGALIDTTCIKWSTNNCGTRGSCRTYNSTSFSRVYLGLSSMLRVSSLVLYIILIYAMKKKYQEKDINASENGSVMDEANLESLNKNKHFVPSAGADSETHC
Format: cell-based.

Substrate in data set [1]: O=C1OC2(c3ccc(O)cc3Oc3cc(O)ccc32)c2ccccc21
It counts as cell-based, Homo sapiens.

By Km is commonly meant the substrate concentration at which the rate is half of its maximum. As to `O=C1OC2(c3ccc(O)cc3Oc3cc(O)ccc32)c2ccccc21` [Na-Fluo, sodium fluorescein], at OATP1B3, the Km was found to be 38.6 µM.
In the case of fluorescein-methotrexate [Fl-MTX], the Km on OATP1B3 stood at 0.53 µM; on OATP1B1, 0.23 µM.

B1: OATP1B1 (Homo sapiens) (protein)
chain: T2 sequence (Q9Y6L6 1-691)
B1: in data set [1], the Km stood at 25.73 µM.
